Measured values published in ChEMBL document CHEMBL1133129, “A focused compound library of novel N-(7-indolyl)benzenesulfonamides for the discovery of potent cell cycle inhibitors” (Bioorg Med Chem Lett, 2000).
Converted amounts (≈) assume the structure as drawn. The source made the active and inactive calls. No cut-off for these calls is given here.

What follows are molecules tested on MC-38 (assay: In vitro antiproliferative activity measured against colon 38 cancer cell line using MTT colorimetric assay). Conditions: Mus musculus.
Assay type: functional, cell-based

| SMILES | IC50 |
| --- | --- |
| O=[N+]([O-])c1ccc(S(=O)(=O)Nc2cc(Cl)cc3cc[nH]c23)cc1 | 13 µg/mL (≈ 37 µM) |
| Nc1ccc(S(=O)(=O)Nc2ccc(-c3ccccc3)c3c(Cl)c[nH]c23)cc1 | 19 µg/mL (≈ 47.8 µM) |
| O=S(=O)(Nc1cccc2cc(O)[nH]c12)c1ccc(Cl)cc1 | 4.5 µg/mL (≈ 13.9 µM) |
| Nc1ccc(S(=O)(=O)Nc2ccc(F)c3c(Cl)c[nH]c23)cc1 | 0.11 µg/mL (≈ 0.324 µM) |
| N#Cc1ccc(S(=O)(=O)Nc2ccc(Cl)c3c(Cl)c[nH]c23)cc1 | 0.12 µg/mL (≈ 0.328 µM) |
| COc1ccc(S(=O)(=O)Nc2cccc3cc(O)[nH]c23)cc1 | 0.22 µg/mL (≈ 0.691 µM) |
| O=[N+]([O-])c1ccc(S(=O)(=O)Nc2cccc3cc(O)[nH]c23)cc1 | 62 µg/mL (≈ 186 µM) |

What follows are molecules tested on P388 (assay: Effect on the cell cycle progression using P388 cells at 4.0 ug/mL for 24 hr; GI increase). Conditions: Mus musculus.
Assay type: functional, cell-based

| SMILES | Cell cycle analysis |
| --- | --- |
| Nc1ccc(S(=O)(=O)Nc2cccc3c(Cl)c[nH]c23)cc1 | GI increase |
| N#Cc1ccc(S(=O)(=O)Nc2cccc3c(Cl)c[nH]c23)cc1 | GI increase |
| Nc1ccc(S(=O)(=O)Nc2ccc(F)c3c(Cl)c[nH]c23)cc1 | GI increase |
| N#Cc1ccc(S(=O)(=O)Nc2ccc(Cl)c3c(Cl)c[nH]c23)cc1 | GI increase |

The molecules below were run on KB (assay: In vitro antiproliferative activity measured against KB cancer cell line using MTT colorimetric assay). Conditions: Homo sapiens.
Assay type: functional, cell-based

| SMILES | IC50 |
| --- | --- |
| O=[N+]([O-])c1ccc(S(=O)(=O)Nc2cc(Cl)cc3cc[nH]c23)cc1 | 12 µg/mL (≈ 34.1 µM) |
| Nc1ccc(S(=O)(=O)Nc2ccc(-c3ccccc3)c3c(Cl)c[nH]c23)cc1 | 15 µg/mL (≈ 37.7 µM) |
| O=S(=O)(Nc1cccc2cc(O)[nH]c12)c1ccc(Cl)cc1 | 1.1 µg/mL (≈ 3.41 µM) |
| Nc1ccc(S(=O)(=O)Nc2ccc(F)c3c(Cl)c[nH]c23)cc1 | 14 µg/mL (≈ 41.2 µM) |
| N#Cc1ccc(S(=O)(=O)Nc2ccc(Cl)c3c(Cl)c[nH]c23)cc1 | 13 µg/mL (≈ 35.5 µM) |
| COc1ccc(S(=O)(=O)Nc2cccc3cc(O)[nH]c23)cc1 | 0.1 µg/mL (≈ 0.314 µM) |
| O=[N+]([O-])c1ccc(S(=O)(=O)Nc2cccc3cc(O)[nH]c23)cc1 | > 100 µg/mL |

Species: Bos taurus
Assay: Inhibitory activity against bovine microtubule assembly
Assay type: functional
Conditions: not given

| SMILES | Concentration |
| --- | --- |
| Nc1ccc(S(=O)(=O)Nc2cccc3c(Cl)c[nH]c23)cc1 | > 33.3 µg/mL |

Each molecule was assayed against T1, Tubulin (Bos taurus) (UniProt Q6B856+Q862L2+Q862F3) (assay: Compound was tested against bovine brain tubulin polymerization). Conditions: not given.
Assay type: functional

| SMILES | Activity |
| --- | --- |
| COc1ccc(S(=O)(=O)Nc2cccnc2Nc2ccc(O)cc2)cc1 | Active |

The molecules below were run on MC-38 (assay: In vitro antiproliferative activity (4 ug/mL) was measured against colon 38 cancer cell line using MTT colorimetric assay). Conditions: Mus musculus.
Assay type: functional, cell-based

| SMILES | IC50 |
| --- | --- |
| Cc1ccc(S(=O)(=O)Nc2cccc3cc(O)[nH]c23)cc1 | 0.17 µg/mL (≈ 0.562 µM) |
| COc1ccc(S(=O)(=O)Nc2cccc3cc(Cl)[nH]c23)cc1 | 0.17 µg/mL (≈ 0.505 µM) |
| O=S(=O)(Nc1cccc2cc(Cl)[nH]c12)c1ccc(Cl)cc1 | 10 µg/mL (≈ 29.3 µM) |

What follows are molecules tested on P388 (assay: Effect on the cell cycle progression using P388 cells at 4.0 ug/mL for 24 hr; No effect). Conditions: Mus musculus.
Assay type: functional, cell-based

| SMILES | Cell cycle analysis |
| --- | --- |
| Nc1ccc(S(=O)(=O)Nc2cccc3cc[nH]c23)cc1 | inactive |
| O=S(=O)(Nc1cccc2cc[nH]c12)c1ccc(Cl)cc1 | inactive |
| O=[N+]([O-])c1ccc(S(=O)(=O)Nc2cc(Cl)cc3cc[nH]c23)cc1 | inactive |
| Nc1ccc(S(=O)(=O)Nc2ccc(-c3ccccc3)c3c(Cl)c[nH]c23)cc1 | inactive |
| O=[N+]([O-])c1ccc(S(=O)(=O)Nc2cccc3cc(O)[nH]c23)cc1 | inactive |

What follows are molecules tested on P388 (assay: Effect on the cell cycle progression using P388 cells at 4.0 ug/mL for 24 hr; G2/M increase). Conditions: Mus musculus.
Assay type: functional, cell-based

| SMILES | Cell cycle analysis |
| --- | --- |
| O=S(=O)(Nc1cccc2cc(Cl)[nH]c12)c1ccc(Cl)cc1 | G2/M increase |

These molecules were tested on P388 (assay: In vitro antiproliferative activity measured against P388 cancer cell line using MTT colorimetric assay). Conditions: Mus musculus.
Assay type: functional, cell-based

| SMILES | IC50 |
| --- | --- |
| O=[N+]([O-])c1ccc(S(=O)(=O)Nc2cc(Cl)cc3cc[nH]c23)cc1 | 13 µg/mL (≈ 37 µM) |
| Nc1ccc(S(=O)(=O)Nc2ccc(-c3ccccc3)c3c(Cl)c[nH]c23)cc1 | 19 µg/mL (≈ 47.8 µM) |
| O=S(=O)(Nc1cccc2cc(O)[nH]c12)c1ccc(Cl)cc1 | 2.2 µg/mL (≈ 6.82 µM) |
| Nc1ccc(S(=O)(=O)Nc2ccc(F)c3c(Cl)c[nH]c23)cc1 | 0.51 µg/mL (≈ 1.5 µM) |
| N#Cc1ccc(S(=O)(=O)Nc2ccc(Cl)c3c(Cl)c[nH]c23)cc1 | 0.59 µg/mL (≈ 1.61 µM) |
| COc1ccc(S(=O)(=O)Nc2cccc3cc(O)[nH]c23)cc1 | 0.11 µg/mL (≈ 0.346 µM) |
| O=[N+]([O-])c1ccc(S(=O)(=O)Nc2cccc3cc(O)[nH]c23)cc1 | > 100 µg/mL |

The molecules below were run on P388 (assay: Effect on the cell cycle progression using P388 cells at 4.0 ug/mL for 24 hr; G2/M arrest & 4C-8C drug treated cells underwent an extra DNA replication without the completion of mitosis). Conditions: Mus musculus.
Assay type: functional, cell-based

| SMILES | Cell cycle analysis |
| --- | --- |
| COc1ccc(S(=O)(=O)Nc2cccc3c(Cl)c[nH]c23)cc1 | G2/M arrest |
| O=S(=O)(Nc1cccc2cc(O)[nH]c12)c1ccc(Cl)cc1 | G2/M arrest |

The molecules below were run against T1, Tubulin (Bos taurus) (assay: Compound was tested against bovine brain tubulin polymerization; active). Conditions: not given.
Assay type: functional

| SMILES | Activity |
| --- | --- |
| COc1ccc(S(=O)(=O)Nc2cccc3c(Cl)c[nH]c23)cc1 | Active |
| Cc1ccc(S(=O)(=O)Nc2cccc3cc(O)[nH]c23)cc1 | Active |
| COc1ccc(S(=O)(=O)Nc2cccc3cc(Cl)[nH]c23)cc1 | Active |
| O=S(=O)(Nc1cccc2cc(Cl)[nH]c12)c1ccc(Cl)cc1 | Active |

These molecules were tested on P388 (assay: Concentration at which compound caused cellular accumulation in GI phase in P388 cells). Conditions: Mus musculus.
Assay type: functional, cell-based

| SMILES | Concentration |
| --- | --- |
| Nc1ccc(S(=O)(=O)Nc2cccc3c(Cl)c[nH]c23)cc1 | 4 µg/mL |

These molecules were tested on P388 (assay: Effect on the cell cycle progression using P388 cells at 4.0 ug/mL for 24 hr; Effect:G2/M arrest & 4C-8C drug treated cells underwent an extra DNA replication without the completion of mitosis). Conditions: Mus musculus.
Assay type: functional, cell-based

| SMILES | Cell cycle analysis |
| --- | --- |
| COc1ccc(S(=O)(=O)Nc2cccc3cc[nH]c23)cc1 | Effect |

What follows are molecules tested on KB (assay: In vitro antiproliferative activity (4 ug/mL) was measured against KB cancer cell line using MTT colorimetric assay). Conditions: Homo sapiens.
Assay type: functional, cell-based

| SMILES | IC50 |
| --- | --- |
| Cc1ccc(S(=O)(=O)Nc2cccc3cc(O)[nH]c23)cc1 | 0.093 µg/mL (≈ 0.308 µM) |
| COc1ccc(S(=O)(=O)Nc2cccc3cc(Cl)[nH]c23)cc1 | 0.12 µg/mL (≈ 0.356 µM) |
| O=S(=O)(Nc1cccc2cc(Cl)[nH]c12)c1ccc(Cl)cc1 | 4 µg/mL (≈ 11.7 µM) |

These molecules were tested on P388 (assay: Effect on the cell cycle progression using P388 cells at 4.0 ug/mL for 24 hr; G2/M arrest). Conditions: Mus musculus.
Assay type: functional, cell-based

| SMILES | Cell cycle analysis |
| --- | --- |
| Cc1ccc(S(=O)(=O)Nc2cccc3cc(O)[nH]c23)cc1 | G2/M arrest |
| COc1ccc(S(=O)(=O)Nc2cccc3cc(Cl)[nH]c23)cc1 | G2/M arrest |
| COc1ccc(S(=O)(=O)Nc2cccnc2Nc2ccc(O)cc2)cc1 | G2/M arrest |
| COc1ccc(S(=O)(=O)Nc2cccc3cc(O)[nH]c23)cc1 | G2/M arrest |

Each molecule was assayed on P388 (assay: In vitro antiproliferative activity was measured against P388 cancer cell line using MTT colorimetric assay). Conditions: Mus musculus.

| SMILES | IC50 |
| --- | --- |
| Cc1ccc(S(=O)(=O)Nc2cccc3cc(O)[nH]c23)cc1 | 0.14 µg/mL (≈ 0.463 µM) |
| COc1ccc(S(=O)(=O)Nc2cccc3cc(Cl)[nH]c23)cc1 | 0.11 µg/mL (≈ 0.327 µM) |
| O=S(=O)(Nc1cccc2cc(Cl)[nH]c12)c1ccc(Cl)cc1 | 7.4 µg/mL (≈ 21.7 µM) |
